Common to all, as to format: protein assay
The target in experiment [1] is T1, Alpha-1,2-mannosidase (BT_2199) (Bacteroides thetaiotaomicron) (UniProt Q8A5N9).
T1 sequence (whole entry): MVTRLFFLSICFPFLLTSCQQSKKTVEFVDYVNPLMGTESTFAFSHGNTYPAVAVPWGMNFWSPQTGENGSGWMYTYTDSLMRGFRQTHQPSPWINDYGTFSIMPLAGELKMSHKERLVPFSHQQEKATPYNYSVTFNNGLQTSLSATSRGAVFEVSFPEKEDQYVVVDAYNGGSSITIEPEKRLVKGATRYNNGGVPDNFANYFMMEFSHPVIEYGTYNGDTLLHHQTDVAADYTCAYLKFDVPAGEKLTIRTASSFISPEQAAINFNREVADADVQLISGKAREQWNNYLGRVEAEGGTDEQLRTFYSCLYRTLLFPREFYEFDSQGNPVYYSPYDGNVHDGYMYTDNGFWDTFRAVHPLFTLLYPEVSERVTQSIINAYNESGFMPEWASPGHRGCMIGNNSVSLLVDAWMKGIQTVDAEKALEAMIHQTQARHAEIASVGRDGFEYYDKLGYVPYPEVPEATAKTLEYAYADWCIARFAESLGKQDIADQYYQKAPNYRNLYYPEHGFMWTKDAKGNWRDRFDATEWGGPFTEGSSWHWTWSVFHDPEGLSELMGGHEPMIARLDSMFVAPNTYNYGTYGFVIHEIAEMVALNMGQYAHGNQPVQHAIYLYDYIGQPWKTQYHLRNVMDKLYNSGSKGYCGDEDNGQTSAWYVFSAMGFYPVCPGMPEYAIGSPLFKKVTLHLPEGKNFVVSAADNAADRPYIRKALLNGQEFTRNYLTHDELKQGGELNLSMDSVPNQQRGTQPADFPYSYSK
The experiment is described as follows: Activity of Bacteroides thetaiotaomicron GH92 alpha-mannosidase GH92 alpha-mannosidase 2199 assessed as mannose release at 1 mM after 16 hrs by HPLC relative to untreated control after 16 hrs by HPLC.

Experiment [2] concerns the target T1, Alpha-1,2-mannosidase (BT_2199) (Bacteroides thetaiotaomicron). The experiment in a line: Activity of Bacteroides thetaiotaomicron GH92 alpha-mannosidase 2199 assessed as recovery of enzyme activity at 1 mM in absence of metal and in presence of 5 mM EDTA in 100 mM pH 7 MOPS buffer relative to enzyme activity in presence of calcium.
For experiment [3] the target is unchanged. The experiment is described as follows: Activity of Bacteroides thetaiotaomicron GH92 alpha-mannosidase 2199 assessed as recovery of enzyme activity at 1 mM in absence of metal and in presence of 5 mM EGTA in 100 mM pH 7 MOPS buffer relative to enzyme activity in presence of calcium.
Experiment [4] shares this target. The experiment is described as follows: Activity of Bacteroides thetaiotaomicron GH92 alpha-mannosidase 2199 assessed as recovery of enzyme activity at 1 mM in presence of 7 mM Mn(2+) ions and in presence of 5 mM EGTA in 100 mM pH 7 MOPS buffer relative to enzyme activity in presence of calcium.
Experiment [5] has the same target. The experiment in a line: Activity of Bacteroides thetaiotaomicron GH92 alpha-mannosidase 2199 assessed as recovery of enzyme activity at 1 mM in presence of 7 mM Sr(2+) ions and in presence of 5 mM EGTA in 100 mM pH 7 MOPS buffer relative to enzyme activity in presence of calcium.
The target is the same in experiment [6]. The experiment is described as follows: Activity of Bacteroides thetaiotaomicron GH92 alpha-mannosidase 2199 assessed as recovery of enzyme activity at 1 mM in presence of 7 mM Sc(3+) ions and in presence of 5 mM EGTA in 100 mM pH 7 MOPS buffer relative to enzyme activity in presence of calcium.
Experiment [7] shares this target. The experiment in a line: Activity of Bacteroides thetaiotaomicron GH92 alpha-mannosidase 2199 assessed as recovery of enzyme activity at 1 mM in presence of 7 mM Ti(3+) ions and in presence of 5 mM EGTA in 100 mM pH 7 MOPS buffer relative to enzyme activity in presence of calcium.
The target in experiment [8] is T2, Alpha-1,2-mannosidase (BT_3990) (Bacteroides thetaiotaomicron) (UniProt Q8A0N1).
T2 sequence (whole entry): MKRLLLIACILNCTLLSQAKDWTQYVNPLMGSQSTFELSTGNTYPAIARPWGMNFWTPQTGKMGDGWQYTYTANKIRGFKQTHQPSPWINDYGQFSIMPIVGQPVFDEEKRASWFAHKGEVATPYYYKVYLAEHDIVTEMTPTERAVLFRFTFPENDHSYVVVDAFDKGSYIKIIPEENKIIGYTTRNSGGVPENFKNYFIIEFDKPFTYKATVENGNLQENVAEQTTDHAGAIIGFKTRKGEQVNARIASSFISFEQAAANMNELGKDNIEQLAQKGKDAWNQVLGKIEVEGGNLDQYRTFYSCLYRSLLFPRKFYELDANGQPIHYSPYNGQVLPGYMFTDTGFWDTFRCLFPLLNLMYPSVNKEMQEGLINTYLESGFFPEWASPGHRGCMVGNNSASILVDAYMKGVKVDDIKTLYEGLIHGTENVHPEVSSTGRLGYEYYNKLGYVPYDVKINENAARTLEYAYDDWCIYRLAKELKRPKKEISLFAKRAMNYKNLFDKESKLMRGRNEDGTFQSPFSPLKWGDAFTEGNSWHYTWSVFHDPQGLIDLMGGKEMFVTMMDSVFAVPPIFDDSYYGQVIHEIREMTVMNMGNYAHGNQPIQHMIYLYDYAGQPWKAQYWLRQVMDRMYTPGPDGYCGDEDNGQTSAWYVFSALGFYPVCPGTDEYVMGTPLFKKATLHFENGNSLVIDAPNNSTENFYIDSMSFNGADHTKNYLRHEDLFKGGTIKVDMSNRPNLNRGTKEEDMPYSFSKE
The experiment is described as follows: Activity of Bacteroides thetaiotaomicron GH92 alpha-mannosidase 3990 assessed as recovery of enzyme activity at 1 mM in absence of metal and in presence of 5 mM EDTA in 100 mM pH 7 MOPS buffer relative to enzyme activity in presence of calcium.

In experiment [9] the target is T2, Alpha-1,2-mannosidase (BT_3990) (Bacteroides thetaiotaomicron). The experiment in a line: Activity of Bacteroides thetaiotaomicron GH92 alpha-mannosidase 3990 assessed as recovery of enzyme activity at 1 mM in presence of 7 mM Ba(2+) ions and in presence of 5 mM EGTA in 100 mM pH 7 MOPS buffer relative to enzyme activity in presence of calcium.
Experiment [10] shares this target. The experiment is described as follows: Activity of Bacteroides thetaiotaomicron GH92 alpha-mannosidase 3990 assessed as recovery of enzyme activity at 1 mM in presence of 7 mM Sr(2+) ions and in presence of 5 mM EGTA in 100 mM pH 7 MOPS buffer relative to enzyme activity in presence of calcium.
Experiment [11] has the same target. The experiment in a line: Activity of Bacteroides thetaiotaomicron GH92 alpha-mannosidase 3990 assessed as recovery of enzyme activity at 1 mM in presence of 7 mM Sc(3+) ions and in presence of 5 mM EGTA in 100 mM pH 7 MOPS buffer relative to enzyme activity in presence of calcium.
The target is the same in experiment [12]. The experiment in a line: Activity of Bacteroides thetaiotaomicron GH92 alpha-mannosidase 3990 assessed as recovery of enzyme activity at 1 mM in presence of 7 mM V(3+) ions and in presence of 5 mM EGTA in 100 mM pH 7 MOPS buffer relative to enzyme activity in presence of calcium.

Active and inactive are the calls of the source. The calls are words filed in the database; no cut-off is given here.

As to `OC[C@H]1O[C@H](O[C@H]2[C@H](O)[C@H](O)[C@@H](O)O[C@@H]2CO)[C@@H](O)[C@@H](O)[C@@H]1O`, the Activity in [1] came to 0.12%.

As for `O=[N+]([O-])c1ccc(O[C@H]2O[C@H](CO)[C@@H](O)[C@H](O)[C@@H]2O)cc1`, the Activity in experiment [2] was 0%; in experiment [3] it was 0%; in [4] it was 6%; in experiment [5], 30%; in [6] it was 0%; in experiment [7], 0%. Also, the Activity was 0% in experiment [8]; 0% in experiment [9]; 12% in experiment [10]; 0% in experiment [11]; 0% in experiment [12].

`OC[C@H]1O[C@H](O[C@H]2[C@@H](O)[C@H](O)[C@@H](CO)O[C@@H]2O)[C@@H](O)[C@@H](O)[C@@H]1O`: the Activity in experiment [1] came to 100%.

As for `OC[C@H]1O[C@H](OC[C@H]2O[C@H](O)[C@@H](O)[C@@H](O)[C@@H]2O)[C@@H](O)[C@@H](O)[C@@H]1O`, the result in experiment [1] was inactive.

On to `OC[C@H]1O[C@H](O[C@@H]2[C@H](O)[C@@H](O)O[C@H](CO)[C@H]2O)[C@@H](O)[C@@H](O)[C@@H]1O`, for which, in experiment [1], the outcome was inactive.

(Values after ChEMBL document CHEMBL1250451, “Mechanistic insights into a Ca2+-dependent family of alpha-mannosidases in a human gut symbiont” (Nat Chem Biol, 2010).)
